Measurements published in patent publication US12162881B2, “Forms and compositions of inhibitors of JAK2” (Ajax Therapeutics, Inc., priority 2021, dated 2024).
In brackets after ≈: the same amount, converted by molar mass. Like-named read-outs stand apart in the source and are kept apart here.

Assays:
Type in all cases: physicochemical
[1] = Variable relative humidity XRPD (VRH-XRPD)
Description: XRPD patterns were collected with a PANalytical X'Pert PRO MPD diffractometer using an incident beam of Cu Kα radiation produced using a long, fine-focus source and a nickel filter. The diffractometer was configured using the symmetric Bragg-Brentano geometry. Data were collected and analyzed using Data Collector software v. 5.5. Prior to the analysis, a silicon specimen (NIST SRM 640f) was analyzed to verify the observed position of the Si 111 peak is consistent with the NIST-certified position. A specimen of the sample was packed in a nickel-coated copper well. Antiscatter slits (SS) were used to minimize the background generated by air. Soller slits for the incident and diffracted beams were used to minimize broadening from axial divergence. Diffraction patterns were collected using a scanning position-sensitive detector (X'Celerator) located 240 mm from the sample and Data Collector software v. 5.5.
An Anton Paar temperature-humidity chamber (THC) was used while collecting in-situ XRPD patterns as a function of humidity. The temperature of the specimen was changed with a Peltier thermoelectric device located directly under the specimen holder and monitored with a platinum-100 resistance sensor located in the specimen holder. The thermoelectric device was powered and controlled by an Anton Paar TCU 50 interfaced with Data Collector. The humidity was generated with an RH-200 manufactured by VTI Inc. and carried by a flow of nitrogen gas. The humidity was monitored by a HygroClip sensor manufactured by Rotronic located next to the specimen inside the THC.
VRH-XRPD analysis was conducted to help determine water activity boundary for the solid-state conversion between hydrated Form A and anhydrous Form B. This method was utilized due the observed high tendency of Compound 1 to form solvates, which precluded the use of solvent-mediated approach.
Overall, two VRH-XRPD experiments were conducted to qualitatively evaluate RH conditions leading to predominance of Form A over Form B and vice versa. The kinetic component was not assessed.
The first VRH-XRPD experiment was conducted with a goal of observing dehydration of hydrated Form A. An initial XRPD scan was, therefore, acquired on Form A equilibrated in-situ at ambient RH for 45 minutes, which at the time of the analysis was ˜30%. The XRPD pattern from this scan was consistent with Form A (FIG. 39, top).
XRPD patterns were collected throughout the course of the experiment, each with a 10 minute scan.
XRPD patterns were collected throughout the course of the experiment, each with a 10 minute scan. The XRPD patterns remained Form B until the RH reached approximately 60% RH, where Form A became the primary phase with some Form B remaining (FIG. 41, top two spectra). Further decrease of Form B was observed through the remainder of the 60% RH hold at which point the experiment ended (FIG. 41, bottom two spectra). Complete conversion to Form A from Form B was not observed under these conditions.

[2] = Dynamic vapor sorption (DVS) hygroscopicity; details: for Hysteresis: in % (unit assumed)
Description: Automated vapor sorption (VS) data were collected on a Surface Measurement System DVS Intrinsic instrument. Samples were not dried prior to analysis. Sorption and desorption data were collected over a range from 5% to 95% RH at 10% RH increments under a nitrogen purge. The equilibrium criterion used for analysis was less than 0.0100% weight change in 5 minutes with a maximum equilibration time of 3 hours. Data were not corrected for the initial moisture content of the samples.

[3] = Kinetic solubility of Compound 1 Lot II, visually estimated at ambient temperature; details: thermodynamic from solid
Description: Kinetic solubility of Compound 1 Lot II was visually estimated at ambient temperature (Table 22). Aliquots of various solvents were added to weighed samples of Compound 1 Lot II with agitation at ambient temperature until complete dissolution was achieved, as judged by visual observation. If dissolution occurred after the addition of the first aliquot, values were reported as “>”.

[4] = Target RH 5.0%, listed as Lot II
[5] = Target RH 15.0%, listed as Lot II
[6] = Target RH 25.0%, listed as Lot II
[7] = Target RH 35.0%, listed as Lot II
[8] = Target RH 45.0%, listed as Lot II
[9] = Target RH 55.0%, listed as Lot II
[10] = Target RH 65.0%, listed as Lot II
[11] = Target RH 75.0%, listed as Lot II
[12] = Target RH 85.0%, listed as Lot II
[13] = Target RH 95.0%, listed as Lot II
[14] = desorption from 95% to 5% RH, listed as Lot II
[15] = sorption from 5% to 95% RH, listed as Lot II

CC(=O)Nc1cc(Oc2cnc3nc(Nc4cc(C(F)(F)F)cn(C)c4=O)n(C)c3c2C#N)ccn1 [Compound 1 Form B, N-(4-((7-cyano-1-methyl-2-((1-methyl-2-oxo-5-(trifluoromethyl)-1,2-dihydropyridin-3-yl)amino)-1H-imidazo[4,5-b]pyridin-6-yl)oxy)pyridin-2-yl)acetamide]
RH at which Form A became the primary phase ([1]; Experiment 2, RH incrementally increased from 15%, starting from Form B): approximately 60 % RH
RH below which the form likely exists ([1]; VRH-XRPD and DVS data combined): below 20 % RH
RH up to which the form may be kinetically stable ([1]; VRH-XRPD and DVS data combined): 40-60 % RH

CC(=O)Nc1cc(Oc2cnc3nc(Nc4cc(C(F)(F)F)cn(C)c4=O)n(C)c3c2C#N)ccn1 [Compound 1 Lot II, N-(4-((7-cyano-1-methyl-2-((1-methyl-2-oxo-5-(trifluoromethyl)-1,2-dihydropyridin-3-yl)amino)-1H-imidazo[4,5-b]pyridin-6-yl)oxy)pyridin-2-yl)acetamide]
Desorp Mass Change (%) [2, 4]: −0.019%
Sorp Mass Change (%) [2, 4]: 0.000%
Desorp Mass Change (%) [2, 5]: 0.332%
Sorp Mass Change (%) [2, 5]: 0.152%
Hysteresis [2, 5]: 0.180
Desorp Mass Change (%) [2, 6]: 5.623%
Sorp Mass Change (%) [2, 6]: 0.250%
Hysteresis [2, 6]: 5.373
Desorp Mass Change (%) [2, 7]: 6.984%
Sorp Mass Change (%) [2, 7]: 1.468%
Hysteresis [2, 7]: 5.516
Desorp Mass Change (%) [2, 8]: 7.374%
Sorp Mass Change (%) [2, 8]: 4.861%
Hysteresis [2, 8]: 2.513
Desorp Mass Change (%) [2, 9]: 7.842%
Sorp Mass Change (%) [2, 9]: 6.99%
Hysteresis [2, 9]: 0.848
Desorp Mass Change (%) [2, 10]: 8.505%
Sorp Mass Change (%) [2, 10]: 7.697%
Hysteresis [2, 10]: 0.808
Desorp Mass Change (%) [2, 11]: 8.972%
Sorp Mass Change (%) [2, 11]: 8.454%
Hysteresis [2, 11]: 0.518
Desorp Mass Change (%) [2, 12]: 9.206%
Sorp Mass Change (%) [2, 12]: 9.042%
Hysteresis [2, 12]: 0.164
Desorp Mass Change (%) [2, 13]: 9.408%
Sorp Mass Change (%) [2, 13]: 9.408%
DVS weight loss upon desorption [2, 14]: 9.4%
DVS weight loss upon desorption as water [2, 14]: approximately 2.9 mol/mol H2O
post-DVS XRPD ([2]; solid recovered after DVS cycle, listed as Lot II): mostly Form B with some peaks attributed to Form O present
DVS weight gain [2, 15]: 9.4%
DVS weight gain as water uptake [2, 15]: approximately 2.9 mol/mol H2O
DVS weight gain ([2]; sorption from 25% to 55% RH): 6.7%
DVS weight gain as water uptake ([2]; sorption from 25% to 55% RH): ~2.0 mol/mol H2O
DVS hysteresis observation ([2]; sorption/desorption 5-95% RH, listed as Lot II): Hysteresis was observed
solubility ([3]; 5:95 HFIPA/H2O (v/v), aqueous with cosolvent or surfactant or cyclodextrin, 5:95 HFIPA/H2O (v/v), ambient temperature, read-out: Solubility (mg/mL)): < 1 mg/mL
solubility ([3]; 50:50 DMA/H2O (v/v), aqueous with cosolvent or surfactant or cyclodextrin, 50:50 DMA/H2O (v/v), ambient temperature, read-out: Solubility (mg/mL)): < 1 mg/mL
solubility ([3]; 50:50 MeOH/CHCl3 (v/v), organic solvent or mixture, 50:50 MeOH/CHCl3 (v/v), ambient temperature, read-out: Solubility (mg/mL)): 5 to 20 mg/mL (≈ 10 to 40.1 mM)
solubility ([3]; 50:50 MeOH/DCM (v/v), organic solvent or mixture, 50:50 MeOH/DCM (v/v), ambient temperature, read-out: Solubility (mg/mL)): 5 to 20 mg/mL (≈ 10 to 40.1 mM)
solubility ([3]; 50:50 MeOH/H2O (v/v), aqueous with cosolvent or surfactant or cyclodextrin, 50:50 MeOH/H2O (v/v), ambient temperature, read-out: Solubility (mg/mL)): < 1 mg/mL
solubility ([3]; 50:50 TFE/H2O (v/v), aqueous with cosolvent or surfactant or cyclodextrin, 50:50 TFE/H2O (v/v), ambient temperature, read-out: Solubility (mg/mL)): 1 to 4.9 mg/mL (≈ 2.01 to 9.83 mM)
solubility ([3]; 50:50 THF/H2O (v/v), aqueous with cosolvent or surfactant or cyclodextrin, 50:50 THF/H2O (v/v), ambient temperature, read-out: Solubility (mg/mL)): 1 to 4.9 mg/mL (≈ 2.01 to 9.83 mM)
solubility ([3]; 50:50 acetone/water (v/v), aqueous with cosolvent or surfactant or cyclodextrin, 50:50 acetone/water (v/v), ambient temperature, read-out: Solubility (mg/mL)): 1 to 4.9 mg/mL (≈ 2.01 to 9.83 mM)
solubility ([3]; ACN, organic solvent or mixture, ACN, ambient temperature, read-out: Solubility (mg/mL)): < 1 mg/mL
solubility ([3]; AcOH, organic solvent or mixture, AcOH, ambient temperature, read-out: Solubility (mg/mL)): 5 to 20 mg/mL (≈ 10 to 40.1 mM)
solubility ([3]; CHCl3, organic solvent or mixture, CHCl3, ambient temperature, read-out: Solubility (mg/mL)): < 1 mg/mL
solubility ([3]; DCM, organic solvent or mixture, DCM, ambient temperature, read-out: Solubility (mg/mL)): < 1 mg/mL
solubility ([3]; DMA, organic solvent or mixture, DMA, ambient temperature, read-out: Solubility (mg/mL)): 5 to 20 mg/mL (≈ 10 to 40.1 mM)
solubility ([3]; DMF, organic solvent or mixture, DMF, ambient temperature, read-out: Solubility (mg/mL)): 1 to 4.9 mg/mL (≈ 2.01 to 9.83 mM)
solubility ([3]; DMSO, organic solvent or mixture, DMSO, ambient temperature, read-out: Solubility (mg/mL)): 5 to 20 mg/mL (≈ 10 to 40.1 mM)
solubility ([3]; H2O, water, H2O, ambient temperature, read-out: Solubility (mg/mL)): < 1 mg/mL
solubility ([3]; HFIPA, organic solvent or mixture, HFIPA, ambient temperature, read-out: Solubility): 84 mg/mL (≈ 169 mM)
solubility ([3]; HFIPA, organic solvent or mixture, HFIPA, ambient temperature, read-out: Solubility (mg/mL)): 5 to 20 mg/mL (≈ 10 to 40.1 mM)
solubility ([3]; MeOH, organic solvent or mixture, MeOH, ambient temperature, read-out: Solubility (mg/mL)): < 1 mg/mL
solubility ([3]; NMP, organic solvent or mixture, NMP, ambient temperature, read-out: Solubility (mg/mL)): 5 to 20 mg/mL (≈ 10 to 40.1 mM)
solubility ([3]; TFE, organic solvent or mixture, TFE, ambient temperature, read-out: Solubility (mg/mL)): 5 to 20 mg/mL (≈ 10 to 40.1 mM)
solubility ([3]; THF, organic solvent or mixture, THF, ambient temperature, solution almost completely clear after 24 h, read-out: Solubility (mg/mL)): 1 to 4.9 mg/mL (≈ 2.01 to 9.83 mM)
solubility ([3]; THF, organic solvent or mixture, THF, left at ambient temperature overnight, read-out: Solubility): ≥ 1 mg/mL
solubility ([3]; acetone, organic solvent or mixture, Acetone, ambient temperature, read-out: Solubility (mg/mL)): < 1 mg/mL
solubility ([3]; ethylene glycol, organic solvent or mixture, Ethylene glycol, ambient temperature, read-out: Solubility (mg/mL)): < 1 mg/mL
solubility ([3]; organic solvent or mixture, AcOH, DMF, DMSO, 50:50 MeOH/DCM, 50:50 MeOH/CHCl3, NMP, TFE, and 50:50 TFE/H2O, ambient temperature, read-out: Solubility (limited solubility values)): 1 to 20 mg/mL (≈ 2.01 to 40.1 mM)
